Data as given in article PMC4855798, “Cell-bound lipases from Burkholderia sp. ZYB002: gene sequence analysis, expression, enzymatic characterization, and 3D structural model” (BMC Biotechnology, 2016).

Tested on: T1, LipC24
T1 construct: mature LipC24 coding region (ORF 438 aa), His6-tag, E. coli Origami2 (DE3), co-expressed with foldase LipB lacking N-terminal 70 residues; purified by HisTrap and DEAE, single 45 kDa band; counterpart in B. cepacia J2315 is BCAM2764
Test: spectrophotometric 4-nitrophenol release, non-linear regression
Type: biochemical, Burkholderia sp. ZYB002
Details: 40 °C, 20 mmol/L Na2HPO4-NaH2PO4 buffer pH 7.5; 0.1-1.8 mmol/L substrate

SMILES: CCCCCCCCCCCCCC(=O)Oc1ccc([N+](=O)[O-])cc1 [4-nitrophenyl myristate]
- Km: 370 ± 70 µM
